Among the test systems are 786-0 renal; IGROV1 ovarian; K-562 leukemia; LOX IMVI melanoma; NCI/ADR-RES ovarian; OVCAR-8 ovarian; SK-MEL-28 melanoma; U251 CNS; UO-31 renal; RXF 393 renal.
What all share (assay): DTP human tumour cell line panel, 48 h

Structures are written as SMILES. Values joined by “and” are separate entries in the source; they are usually repeats but may differ in a detail not shown here. Equal values may be shown once.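 48-hour exposure; five concentrations; linearly interpolated endpoints. GI50 marks 50% less growth. TGI marks complete inhibition of growth.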

As to `CCC(C(=O)C(=O)OC)P1(=O)OC(C)(C)CN1C(C)(C)C` (stereo unspecified), the TGI with 786-0 renal, in the assay on IGROV1 ovarian, in the assay on K-562 leukemia, in the assay on LOX IMVI melanoma, in the assay on NCI/ADR-RES ovarian and in the assay on OVCAR-8 ovarian was > 100 µM in each case. Further, the TGI with SK-MEL-28 melanoma, with U251 CNS and in the assay with UO-31 renal was > 100 µM each time.

Take `CCCSc1nc(-c2ccc(OC)cc2)c(C#N)c(=O)n1C1OC(COC(C)=O)C(OC(C)=O)C(OC(C)=O)C1OC(C)=O` (stereo unspecified): the GI50 (as a rule, the concentration at which growth is held to half of that of the control) is > 100 µM and 43.4 µM in the assay with IGROV1 ovarian; > 100 µM and 17.2 µM with RXF 393 renal; > 100 µM and 17.9 µM with U251 CNS; > 100 µM and 36.9 µM in the assay with UO-31 renal. The TGI (as a rule, the concentration at which net growth stops) is > 100 µM with IGROV1 ovarian; > 100 µM with K-562 leukemia; > 100 µM and 61.2 µM in the assay with RXF 393 renal; > 100 µM with SK-MEL-28 melanoma; > 100 µM and 34.2 µM in the assay with U251 CNS; > 100 µM with UO-31 renal.

Consider `OCc1ccc2c(c1)CC1(Cc3ccc(/C=N/O)cc3C1)C2` (stereo unspecified), for which the TGI in the assay with 786-0 renal was > 100 µM; in the assay with IGROV1 ovarian, > 100 µM; in the assay with LOX IMVI melanoma, > 100 µM; in the assay on NCI/ADR-RES ovarian it was 37 µM; with OVCAR-8 ovarian, 35.2 µM; in the assay on SK-MEL-28 melanoma, > 100 µM. Besides, the TGI in the assay on U251 CNS is > 49.3 µM; in the assay with UO-31 renal, 80.9 µM.

Turning to `Cc1cnc2c(c1)C(=O)C1=C(C2=O)C2OC(=O)CC2OC1(C)C` (stereo unspecified), the TGI with 786-0 renal came to 0.9 µM; with IGROV1 ovarian, 0.424 µM; with OVCAR-8 ovarian, 2.19 µM; in the assay with RXF 393 renal, 0.507 µM; in the assay on SK-MEL-28 melanoma it was 2.04 µM; with U251 CNS it was 0.519 µM. The compound further registered a TGI in the assay on UO-31 renal of 1.26 µM.

Regarding `CC(=O)OC1C(COC(=O)c2ccccc2)OC(Nc2ncc(-c3ccc(Br)cc3)s2)C(OC(=O)c2ccccc2)C1OC(=O)c1ccccc1` (stereo unspecified), the TGI in the assay with 786-0 renal, with IGROV1 ovarian, in the assay on K-562 leukemia, in the assay on LOX IMVI melanoma, in the assay on OVCAR-8 ovarian and in the assay on RXF 393 renal was > 100 µM in each case. The TGI in the assay on SK-MEL-28 melanoma, in the assay with U251 CNS and with UO-31 renal was > 100 µM in each case.

In the case of `CN(C)CCC(=O)/C=C\c1ccccc1`, the concentration for total growth inhibition (TGI) in the assay on 786-0 renal was found to be 29.8 µM; in the assay with IGROV1 ovarian, 62 µM; in the assay with K-562 leukemia it was 36.8 µM; in the assay with LOX IMVI melanoma, 29.6 µM; with OVCAR-8 ovarian, 37 µM; in the assay on RXF 393 renal, 29.2 µM. Further, the TGI in the assay on SK-MEL-28 melanoma was found to be 30.9 µM; with U251 CNS, 31.6 µM; with UO-31 renal it was 34 µM.

Turning to `COc1ccc(C2c3cc4c(cc3OC(N3CCOCC3)C2C)OCO4)c(OC)c1OC` (stereo unspecified), the TGI with 786-0 renal was 43.2 µM; with IGROV1 ovarian it was 70.7 µM; in the assay with K-562 leukemia it was 21 µM; in the assay on LOX IMVI melanoma, 33.9 µM; with NCI/ADR-RES ovarian, > 100 µM; with OVCAR-8 ovarian, > 100 µM. Moreover, the TGI in the assay with SK-MEL-28 melanoma came to 82 µM; in the assay on UO-31 renal it was 35.1 µM.

As to `O=c1cc(N2CCCC2)[nH]c(=O)n1-c1ccccc1`, the TGI in the assay on 786-0 renal, with IGROV1 ovarian, in the assay on K-562 leukemia, in the assay with LOX IMVI melanoma, in the assay with NCI/ADR-RES ovarian and in the assay on OVCAR-8 ovarian was > 100 µM throughout. Besides, the concentration for total growth inhibition (TGI) in the assay with SK-MEL-28 melanoma and in the assay with U251 CNS was > 100 µM throughout.

`CCOC(=O)C#Cc1ccccc1`: the TGI was 21.5 µM with 786-0 renal; 8.91 µM in the assay with K-562 leukemia; 14.9 µM in the assay on LOX IMVI melanoma; > 100 µM in the assay on NCI/ADR-RES ovarian; > 100 µM in the assay with OVCAR-8 ovarian; 44.3 µM in the assay on SK-MEL-28 melanoma. Moreover, the TGI came out at 25.9 µM in the assay on U251 CNS and 2.11 µM in the assay on UO-31 renal.

On to `CCOC(=O)c1nc2cc(C(F)(F)F)ccc2nc1Nc1ccc(C(=O)NC(C(=O)OCC)C(=O)OCC)cc1`, for which the TGI is 27.6 µM in the assay on 786-0 renal; 54.2 µM with IGROV1 ovarian; > 100 µM in the assay with K-562 leukemia; > 100 µM with LOX IMVI melanoma; 28.8 µM in the assay on RXF 393 renal; 69.2 µM in the assay on SK-MEL-28 melanoma. The TGI with U251 CNS came out at 32 µM; in the assay on UO-31 renal, 91.9 µM.

As to `CO[C@]12C[C@H](CNC(=O)c3ccc[nH]3)O[C@H]1NC(=O)N2`, the TGI in the assay on 786-0 renal, in the assay with IGROV1 ovarian, in the assay with K-562 leukemia, in the assay on LOX IMVI melanoma, with NCI/ADR-RES ovarian and in the assay on OVCAR-8 ovarian was > 100 µM in each case. Moreover, the TGI in the assay on U251 CNS and in the assay with UO-31 renal was > 100 µM throughout.

On to `CC(=O)OCc1c(O)c2c(c(O)c1COC(C)=O)C(=O)C=CC2=O`, for which the TGI with IGROV1 ovarian is 30.5 µM; in the assay with K-562 leukemia it was > 100 µM; with OVCAR-8 ovarian it was 30.2 µM; in the assay with SK-MEL-28 melanoma, 22.8 µM; with U251 CNS, 28.5 µM; with UO-31 renal, 29 µM.

Take `COC(=O)C1=Nc2c(C)nn(-c3ccccc3)c2N=C(c2ccccc2)C1`: the TGI in the assay on 786-0 renal, in the assay with IGROV1 ovarian, in the assay with K-562 leukemia, in the assay with LOX IMVI melanoma, in the assay with NCI/ADR-RES ovarian and with OVCAR-8 ovarian was > 10 µM each time. Also, the TGI with SK-MEL-28 melanoma and in the assay on U251 CNS was > 10 µM in each case.

Values taken from PubChem BioAssay (NCI).
